Measurements published in patent publication US20190048321A1, “Macrophage Enrichment of Cancer Stem Cells” (UNIVERSITY OF SOUTH CAROLINA, priority 2017, published 2019).

Assays:
[1] = tested on: MDA-MB-231 human breast cancer cells; assay: 3D PEGDA hydrogel culture of MDA-MB-231 cancer cells alone treated with Paclitaxel (MDA+PTX); assay type: cell-based
Protocol: (§1) Polyethylene glycol was functionalized with acrylate end-groups by reaction with acryloyl chloride using well-established procedures to generate a photopolymerizable polyethylene glycol diacrylate (PEGDA). The PEGDA and a photoinitiator (4-(2-hydroxyethoxy)phenyl-(2-hydroxy-2-propyl) ketone (commercial name Irgacure-2959)) were dissolved in aqueous solution to generate a hydrogel precursor solution. Prior to cure, the hydrogel precursor solution was combined with MDA-MB-231 human breast cancer cells alone (MDA), with human spleen-derived macrophages alone (Mac) or with both (MDA+Mac).
(§2) To form the matrices, the cancer cells and/or macrophages were suspended in the PEGDA hydrogel precursor solution, the suspension was pipetted in a tissue culture plate as a thin film, and the film was photopolymerized with UV radiation to encapsulate the cells in the hydrogel matrix.
(§3) This co-culture system was also used to screen Paclitaxel (PTX) toxicity against CSCs. […] MDA cancer cells cultured alone with no PTX (MDA) grew by forming tumor spheres with mixed population of stem and differentiated cells and as shown the growing cells expressed CSC markers.

[2] = tested on: CSCs in MDA-MB-231 breast tumor cells; assay: 3D PEGDA hydrogel co-culture of MDA-MB-231 cancer cells with macrophages treated with Paclitaxel (MDA+Mac/PTX); assay type: cell-based, human
Protocol: as §1, §2, §3

[3] = tested on: MDA-MB-231 cells; details: 2D tissue culture plates, previous studies; cited from earlier work

Question: What does the source list for CC(=O)O[C@H]1C(=O)[C@@]2(C)[C@H]([C@H](OC(=O)c3ccccc3)[C@]3(O)C[C@H](OC(=O)[C@H](O)[C@@H](NC(=O)c4ccccc4)c4ccccc4)C(C)=C1C3(C)C)[C@]1(OC(C)=O)CO[C@@H]1C[C@@H]2O [PTX, Paclitaxel]?
Answer: cell number ([1]; MDA cancer cells alone treated with PTX (MDA+PTX) (FIG. 4a)): increased somewhat; expression of CSC markers ([1]; MDA cancer cells alone treated with PTX (MDA+PTX) (FIG. 4b-d)): increased significantly; cell growth / cell content ([2]; MDA cancer cells with macrophages in 5 kPa PEGDA matrix, treated with PTX (FIG. 4a)): effective in halting cell growth and the cell content decreased; expression of CSC markers (CD44, ABCG2, EGFR) ([2]; MDA cancer cells with macrophages treated with PTX, with incubation (FIG. 4b-d)): sharply increased; effectiveness against CSCs ([2]; MDA+Mac/PTX co-culture screen, MDA-MB-231 breast tumor cells): ineffective against CSCs; effectiveness against MDA-MB-231 cells [3]: effective
